Data as given in US20230124862A1, “BISMUTH THIOL COMPOUNDS AND COMPOSITIONS AND METHODS OF TREATING MICROBIAL CO-INFECTIONS” (Microbion Corporation, priority 2020, published 2023).
Several values for one entry are separate records, joined by “and”; a condition that tells them apart may be missing. Equal values may be shown once. Read-outs that look alike come from different tables or passages of the source.

Type: in vivo, beagle dogs
Procedure: Once adequately conditioned to the restraint device and face-masks, the animals are individually exposed to the test article aerosols. Animals receive a single face-mask inhalation exposure in a ramp study design to test article aerosols for up to 60 min. Animal observations during and post exposure determine the tolerance of inhaled BisEDT aerosols.
Blood Collections and Bioanalytical Analysis: Blood are collected for pharmacokinetic (PK) analysis prior to exposure, then at 4 hr (±5 min) post exposure, and again on Day 1, Day 2, Day 7 (pre- and 4 hr (±5 min)-post exposure), Day 8, Day 9, Day 10, Day 11, Day 12, Day 13, and Day 14. A total of 0.25 mL is collected at each timepoint. No PK blood is collected from the vehicle control (Group 1) animals; only animals exposed to BisEDT have blood collected for PK analysis. Collected samples are flash frozen without processing for shipment to Medpace for bioanalytical analysis. Additional blood is collected from all animals in all groups for hematology (1 mL) and clinical chemistry (1 mL) at baseline, Day 7 (pre-exposure), and again at euthanasia. Blood (2-2 mL) is collected from all animals at necropsy for coagulation analysis (d-Dimer, fibrinogen, PT, and PTT).
For clinical chemistry analyses, whole blood (1 mL) is placed into serum separator or clot tube and […] by centrifugation at a minimum of 1300 g at 2 to 8° C. for 10 (±1) min. Plasma samples are stored at −70 to −90° C. until analysis.
Clinical chemistry samples are analyzed on a Hitachi Modular Analytics Clinical Chemistry System (Roche Diagnostics, Indianapolis, Ind.).

With `C1C[S][Bi]([S]CC[S][Bi]2[S]CC[S]2)[S]1` [BisEDT, Bismuth-1,2-ethanedithiol] the AGR (dog 2001 Male) was 1.9 and 2.0 and 1.8, the ALB (dog 2001 Male) was 3.3 g/dL and 3.4 g/dL and 3.5 g/dL and the ALPK (dog 2001 Male) was 130 IU/L and 140 IU/L and 128 IU/L. For the same compound, the ALT (dog 2001 Male) was 22 IU/L, the AST (dog 2001 Male) was 48 IU/L and 36 IU/L and the BUN (dog 2001 Male) was 12 mg/dL and 16 mg/dL and 15 mg/dL. For the same compound, the CA2 (dog 2001 Male) was 10.9 mg/dL and 10.8 mg/dL and 11.0 mg/dL, the CHOL (dog 2001 Male) was 168 mg/dL and 167 mg/dL and 152 mg/dL and the CREA (dog 2001 Male) was 0.7 mg/dL and 0.6 mg/dL. The Cl (dog 2001 Male) was 109 mmo/L and 113 mmo/L and 108 mmo/L, the GGT (dog 2001 Male) was 3 IU/L and the GLOB (dog 2001 Male) was 1.7 g/dL and 2.0 g/dL. The GLUC (dog 2001 Male) was 91 mg/dL and 97 mg/dL and 102 mg/dL, the K (dog 2001 Male) was 4.5 mmo/L and 4.9 mmo/L and 4.7 mmo/L and the Na (dog 2001 Male) was 149 mmo/L and 147 mmo/L. The TBIL (dog 2001 Male) was 0.15 mg/dL, the TP (dog 2001 Male) was 5.0 g/dL and 5.1 g/dL and 5.5 g/dL and the TRIG (dog 2001 Male) was 66 mg/dL and 80 mg/dL and 63 mg/dL. The AGR (dog 2002 Female) was 1.7 and 2.3, the ALB (dog 2002 Female) was 3.3 g/dL and 3.6 g/dL and 3.7 g/dL and the ALT (dog 2002 Female) was 18 IU/L and 29 IU/L and 27 IU/L. The AST (dog 2002 Female) was 35 IU/L and 41 IU/L and 38 IU/L, the BUN (dog 2002 Female) was 13 mg/dL and 14 mg/dL and the CA2 (dog 2002 Female) was 10.9 mg/dL and 10.8 mg/dL and 10.6 mg/dL. The CHOL (dog 2002 Female) was 138 mg/dL and 123 mg/dL and 114 mg/dL, the CREA (dog 2002 Female) was 0.6 mg/dL and the Cl (dog 2002 Female) was 110 mmo/L and 114 mmo/L and 113 mmo/L. The GGT (dog 2002 Female) was 3 IU/L, the GLOB (dog 2002 Female) was 1.9 g/dL and 1.6 g/dL and the GLUC (dog 2002 Female) was 95 mg/dL and 98 mg/dL and 89 mg/dL. For the same compound, the K (dog 2002 Female) was 5.0 mmo/L and 5.2 mmo/L and 4.6 mmo/L, the Na (dog 2002 Female) was 149 mmo/L and 147 mmo/L and 148 mmo/L and the TBIL (dog 2002 Female) was 0.15 mg/dL. The TP (dog 2002 Female) was 5.2 g/dL and 5.3 g/dL, the TRIG (dog 2002 Female) was 38 mg/dL and 39 mg/dL and 31 mg/dL and the AGR (dog 3001 Male) was 2.0 and 2.1. For the same compound, the ALB (dog 3001 Male) was 3.2 g/dL and 3.4 g/dL, the ALPK (dog 3001 Male) was 142 IU/L and 135 IU/L and 121 IU/L and the ALT (dog 3001 Male) was 26 IU/L and 24 IU/L and 22 IU/L. For the same compound, the AST (dog 3001 Male) was 30 IU/L and 32 IU/L and 33 IU/L, the CA2 (dog 3001 Male) was 10.7 mg/dL and 10.5 mg/dL and 10.0 mg/dL and the CHOL (dog 3001 Male) was 100 mg/dL and 111 mg/dL. The CREA (dog 3001 Male) was 0.6 mg/dL and 0.7 mg/dL and 1.0 mg/dL, the Cl (dog 3001 Male) was 111 mmo/L and 110 mmo/L and 109 mmo/L and the GGT (dog 3001 Male) was 3 IU/L. For the same compound, the GLOB (dog 3001 Male) was 1.6 g/dL and 1.7 g/dL, the GLUC (dog 3001 Male) was 100 mg/dL and 88 mg/dL and 51 mg/dL and the K (dog 3001 Male) was 4.7 mmo/L and 5.1 mmo/L and 5.8 mmo/L. The Na (dog 3001 Male) was 146 mmo/L and 148 mmo/L, the TBIL (dog 3001 Male) was 0.15 mg/dL and the TP (dog 3001 Male) was 4.8 g/dL and 5.1 g/dL and 5.0 g/dL. The TRIG (dog 3001 Male) was 26 mg/dL and 34 mg/dL and 52 mg/dL, the AGR (dog 3002 Female) was 2.3 and 1.8 and 2.6 and the ALB (dog 3002 Female) was 3.5 g/dL and 3.7 g/dL. The ALPK (dog 3002 Female) was 164 IU/L and 90 IU/L and 176 IU/L, the ALT (dog 3002 Female) was 28 IU/L and 20 IU/L and the AST (dog 3002 Female) was 36 IU/L and 28 IU/L and 30 IU/L. The CA2 (dog 3002 Female) was 11.2 mg/dL and 10.8 mg/dL and 10.4 mg/dL, the CHOL (dog 3002 Female) was 126 mg/dL and 175 mg/dL and 141 mg/dL and the CREA (dog 3002 Female) was 0.6 mg/dL and 0.5 mg/dL and 0.9 mg/dL. The Cl (dog 3002 Female) was 112 mmo/L and 109 mmo/L and 110 mmo/L, the GGT (dog 3002 Female) was 3 IU/L and the GLOB (dog 3002 Female) was 1.5 g/dL and 2.0 g/dL and 1.4 g/dL. The GLUC (dog 3002 Female) was 112 mg/dL and 90 mg/dL and 65 mg/dL, the K (dog 3002 Female) was 5.5 mmo/L and 5.3 mmo/L and 5.9 mmo/L and the Na (dog 3002 Female) was 149 mmo/L and 145 mmo/L. The TBIL (dog 3002 Female) was 0.15 mg/dL, the TP (dog 3002 Female) was 5.0 g/dL and 5.5 g/dL and 5.1 g/dL and the TRIG (dog 3002 Female) was 34 mg/dL and 43 mg/dL and 58 mg/dL. For the same compound, the AGR (dog 4001 Male) was 2.3 and 1.8 and 1.9, the ALB (dog 4001 Male) was 3.6 g/dL and 3.4 g/dL and 3.2 g/dL and the ALPK (dog 4001 Male) was 103 IU/L and 114 IU/L and 119 IU/L. For the same compound, the ALT (dog 4001 Male) was 27 IU/L and 28 IU/L, the AST (dog 4001 Male) was 32 IU/L and 39 IU/L and 34 IU/L and the BUN (dog 4001 Male) was 11 mg/dL and 12 mg/dL. The CA2 (dog 4001 Male) was 10.8 mg/dL and 10.6 mg/dL and 10.4 mg/dL, the CHOL (dog 4001 Male) was 153 mg/dL and 147 mg/dL and 111 mg/dL and the CREA (dog 4001 Male) was 0.7 mg/dL and 0.6 mg/dL. The Cl (dog 4001 Male) was 120 mmo/L and 116 mmo/L and 113 mmo/L, the GGT (dog 4001 Male) was 3 IU/L and the GLOB (dog 4001 Male) was 1.6 g/dL and 1.9 g/dL and 1.7 g/dL. The GLUC (dog 4001 Male) was 102 mg/dL and 82 mg/dL and 86 mg/dL, the K (dog 4001 Male) was 4.7 mmo/L and 4.8 mmo/L and the Na (dog 4001 Male) was 152 mmo/L and 147 mmo/L and 145 mmo/L. The TBIL (dog 4001 Male) was 0.15 mg/dL, the TP (dog 4001 Male) was 5.2 g/dL and 5.3 g/dL and 4.9 g/dL and the TRIG (dog 4001 Male) was 49 mg/dL and 46 mg/dL and 40 mg/dL. For the same compound, the AGR (dog 4002 Female) was 1.7 and 1.8, the ALB (dog 4002 Female) was 3.5 g/dL and the ALPK (dog 4002 Female) was 147 IU/L and 103 IU/L. The ALT (dog 4002 Female) was 20 IU/L and 21 IU/L, the AST (dog 4002 Female) was 32 IU/L and 35 IU/L and the BUN (dog 4002 Female) was 13 mg/dL and 12 mg/dL. The CA2 (dog 4002 Female) was 11.1 mg/dL and 11.2 mg/dL, the CHOL (dog 4002 Female) was 182 mg/dL and 169 mg/dL and the CREA (dog 4002 Female) was 0.6 mg/dL and 0.5 mg/dL. The Cl (dog 4002 Female) was 116 mmo/L and 112 mmo/L.
